The target in this experiment is human JMJD5 (Homo sapiens, UniProt Q8N371). Kind of experiment: SPE-MS JMJD5 inhibition assay (hydroxylation of RPS6 128–148 peptide). The class given is biochemical. From the text: Synthetic peptides with sequences based on reported human 2OG oxygenase substrates were used in SPE-MS inhibition assays: RPS6, residues 128–148, for JMJD5;[42] HIF-α CODD, residues 558–574, for PHD2;[70] HIF-α CAD, residues 788–822, for FIH;[70] H3_1-15K9me3, histone 3 (H3), residues 1–15 with K9 of H3-bearing three methyl groups at the N^ε-position, K4 of H3 substituted by an alanine residue, and K14 of H3 by an isoleucine residue,[73] for KDM4E; and RPL27A, residues 31–49, for RIOX2 (Mina53).[44] All peptides were prepared as C-terminal amides by GL Biochem (Shanghai) Ltd. A synthetic thioether-linked cyclic peptide, hFX-CP101–119,[48] which was designed based on the reported cellular AspH substrate human coagulation factor X (hFX, residues 101–119; C101 was substituted for a D-alanine residue and C112 for a serine residue),[79] was used as AspH substrate; it was prepared with a C-terminal amide according to literature protocols.[80]
human JMJD5, sequence (Q8N371 whole entry, the tested form may be a part): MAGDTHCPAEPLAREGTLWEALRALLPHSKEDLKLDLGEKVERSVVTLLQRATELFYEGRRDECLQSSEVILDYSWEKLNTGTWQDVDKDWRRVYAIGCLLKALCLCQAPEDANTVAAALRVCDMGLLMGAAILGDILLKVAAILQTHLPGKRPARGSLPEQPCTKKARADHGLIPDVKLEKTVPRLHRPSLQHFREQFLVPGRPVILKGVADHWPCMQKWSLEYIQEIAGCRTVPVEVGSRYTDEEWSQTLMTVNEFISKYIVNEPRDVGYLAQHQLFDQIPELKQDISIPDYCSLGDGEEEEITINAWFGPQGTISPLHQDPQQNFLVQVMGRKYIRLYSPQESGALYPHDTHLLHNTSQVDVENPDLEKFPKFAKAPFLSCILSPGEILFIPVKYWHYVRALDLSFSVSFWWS
Cosubstrate/cofactor stock solutions [L-ascorbic acid/LAA: 50 mM in MQ-grade water; 2-oxoglutarate/2OG: 10 mM in MQ-grade water; ammonium iron(II) sulfate hexahydrate/FAS/(NH4)2Fe(SO4)2·6H2O: 400 mM in 20 mM HCl diluted to 1 mM in MQ-grade water] were freshly prepared from commercial solids (Sigma-Aldrich) on the day the assays were performed. The JMJD5,[42] PHD2,[70] FIH,[70] KDM4E,[72],[73] RIOX2,[44] and AspH[45] SPE-MS inhibition assays were performed as described in the cited literature, using isolated recombinant human enzymes (His6-thioredoxin-JMJD5,[42] His6-PHD2_181–426,[70] His6-FIH,[70] His6-KDM4E,[72],[73] His6-RIOX2_26–465,[87],[88] and His6-AspH315–758[48],[80]) and synthetic peptide substrates (RPS6_128–148 for JMJD5;[42] HIF-α CODD558–574 for PHD2;[70] HIF-α CAD788–822 for FIH;[70] H3_1–15K9me3 for KDM4E;[73] RPL27A31–49 for RIOX2;[44],[71] and hFX-CP101–119 for AspH;[45],[48] see above). For JMJD5, PHD2, FIH, RIOX2, and AspH, substrate hydroxylation was monitored (+16 Da mass shift), while for the KDM4E substrate, demethylation was monitored (−14 Da mass shift) by SPE-MS.

Where [1] appears, read: Table 1, JMJD5 […], 2OG 2.0 μM, Fe(II) 2.0 μM, LAA 100 μM, RPS6 128–148 2.0 μM, pH 7.5, 20 °C, n = 3, mean ± SD, read-out: IC50 JMJD5.
Where [2] appears, read: isolated recombinant JMJD5, SPE-MS.
The mark [3] stands for this setting: supplementary CSV, read-out: IC50 JMJD5.
Where [4] appears, read: Supporting Table S1, JMJD5 […], 2OG 2.0 μM, RPS6 128-148 2.0 μM, pH 7.5, 20 °C, n = 3, mean ± SD, read-out: IC50 JMJD5.
Where [5] appears, read: isolated recombinant JMJD5, SPE-MS, approximate values, read-out: IC50 for JMJD5 inhibition.

Where “and” joins values, the source holds several entries; their conditions need not be identical. Equal values may be shown once. Read-outs that look alike come from different tables or passages of the source.

With `O=C(O)c1ccnc(C(=O)O)c1F` [Compound 13, 3-fluoro-2,4-PDCA], the IC50 runs as follows: under setting [1], 27.2 ± 2.9 µM; under setting [3], 27.2 ± 2.9 µM. The “JMJD5 inhibition (in words)” value under setting [2] was “did not efficiently inhibit JMJD5”.

With `O=C(O)c1ccnc(C(=O)O)c1Nc1ccccc1F` [Compound 25], the IC50 runs as follows: under setting [4], 46.9 ± 4.6 µM; under setting [3], 46.9 ± 4.6 µM.

Regarding `O=C(O)c1ccnc(C(=O)O)c1NCCCc1ccccc1` [Compound 11], the IC50 is, setting by setting: under setting [1], 19.7 ± 3 µM; under setting [3], 19.7 ± 3 µM.

As to `O=C(O)c1ccnc(C(=O)O)c1NCC1CCCCC1` [Compound 5], the IC50 under setting [1] came out at 25.3 ± 0.5 µM, the IC50 under setting [5] was ~25.3 µM and the IC50 under setting [3] was 25.3 ± 0.5 µM.

For `Nc1ccccc1Nc1c(C(=O)O)ccnc1C(=O)O` [Compound 29], the IC50 is, setting by setting: under setting [4], 39.6 µM; under setting [3], 39.6 ± 11.2 µM.

For the compound `O=C(O)c1ccnc(C(=O)O)c1NCc1ccccc1` [Compound 3], the IC50 stood at 9.5 ± 2.2 µM under setting [1] and 9.5 ± 2.2 µM under setting [3].

Regarding `O=C(O)c1cc(C(=O)O)c(F)cn1` [Compound 15, 5-fluoro-2,4-PDCA], the IC50 under setting [1] was 4.5 ± 0.9 µM, the IC50 under setting [5] is ~4.5 µM and the IC50 under setting [3] was 4.5 ± 0.9 µM. Also, the “JMJD5 inhibition (in words)” value under setting [2] is given as “inhibits”.

Consider `O=C(O)c1ccnc(C(=O)O)c1NCCCCc1ccccc1` [Compound 12], for which the IC50 was 20.8 ± 0.2 µM under setting [1] and 20.8 ± 0.2 µM under setting [3].

Consider `O=C(O)c1ccnc(C(=O)O)c1NCc1ccc(C(F)(F)F)cc1` [Compound 7], for which the IC50 under setting [1] was 10.4 ± 4.4 µM and the IC50 under setting [3] was 10.4 ± 4.4 µM.

In the case of `O=C(O)c1ccnc(C(=O)O)c1NCCc1ccc(Cl)cc1` [Compound 31], the IC50 by setting is: under setting [4], 10.3 ± 3.1 µM; under setting [3], 10.3 ± 3.1 µM.

For `COc1ccc(CNc2c(C(=O)O)ccnc2C(=O)O)cc1` [Compound 6], the IC50 was determined as 5.8 ± 2.9 µM under setting [1] and 5.8 ± 2.9 µM under setting [3].

For `CC(Nc1c(C(=O)O)ccnc1C(=O)O)c1ccccc1` (stereo not shown) [Compound 8], the IC50 reads like this: under setting [1], 3.1 ± 1.5 µM; under setting [5], ~3.1 µM; under setting [3], 3.1 ± 1.5 µM. Besides, the “JMJD5 inhibition less efficient than 2,4-PDCA (1)” value (compared with 1) is ~6 fold and ~ 5 fold. Besides, the “JMJD5 inhibition more efficient than 3” value (compared with 3) is given as ~3 fold.

For `O=C(O)c1ccnc(C(=O)O)c1Nc1ccccc1[N+](=O)[O-]` [Compound 2], the IC50 was 17.9 ± 2.6 µM under setting [1]; ~17.9 µM and ~16.8 µM under setting [5]; 17.9 ± 2.6 µM under setting [3].

As for `CC(Nc1cnccc1C(=O)O)c1ccccc1` (stereo not shown) [Compound 30], the IC50 is, setting by setting: under setting [4], > 50 µM; under setting [3], > 50 µM.

For `O=C(O)c1ccncc1NCc1ccccc1` [Compound 4], the IC50 was > 50 µM under setting [1] and > 50 µM under setting [3]. For the same compound, the “JMJD5 inhibition (in words)” value under setting [2] is “does not inhibit JMJD5”.

Turning to `CCC(Nc1c(C(=O)O)ccnc1C(=O)O)c1ccccc1` (stereo not shown) [Compound 9], the IC50 by setting is: under setting [1], 7.5 ± 2 µM; under setting [5], ~7.5 µM; under setting [3], 7.5 ± 2 µM.

As to `O=C(O)c1ccncc1NCCc1ccc(Cl)cc1` [Compound 32], the IC50 is > 50 µM under setting [4] and > 50 µM under setting [3].

For the compound `COC(=O)c1ccnc(C(=O)OC)c1` [dimethyl 2,4-PDCA, reference compound], under setting [4], the IC50 was > 50 µM. For the same compound, the “JMJD5 inhibition (in words)” value was “does not inhibit isolated recombinant JMJD5” under setting [2] and “does not inhibit isolated recombinant JMJD5 efficiently” (isolated recombinant JMJD5, SPE-MS, listed as dimethyl ester derivative of 1).

As for `O=C(O)c1ccnc(C(=O)O)c1NCCc1ccccc1` [Compound 10], the IC50 by setting is: under setting [1], 19.6 ± 3 µM; under setting [3], 19.6 ± 3 µM.

The values are drawn from paper PMC10424186 (Journal of Medicinal Chemistry, 2023).
